Literature values, collected in patent US7678762B2, “Methods for reducing the risk of hypoglycemia” (DiObex, Inc., priority 2002, dated 2010).

What was measured:
[1] = relative to normal glucagon
[2] = relative to normal glucagon; remark: listed apart in the source

Row | binding affinity [2] [%] | Substance | relative potency [1] [%]
1 | 500 | variant glucagon Lys 17 and 18, Glu 21: variant glucagon with a Lys substitution at positions 17 and 18 and a Glu substitution at position 21 (Sturm et al.) (HSQGTFTSDYSKYLDSKKAQEFVQWLMNT; Glucagon; UniProt P01275 53-81, looked up, variant R17K R18K D21E) | 700
2 | 4.7 | glucagon variant with a Phe at position 18: glucagon variant with a Phe at position 18 | 0.9
3 | 220 | variant glucagon amide Lys 17: variant glucagon amide with only a Lys substitution at position 17 | 230
